According to ChEMBL document CHEMBL5550168, “Structure-based design of multitargeting ChEs-MAO B inhibitors based on phenyl ring bioisosteres: AChE/BChE selectivity switch and drug-like characterization” (Eur J Med Chem, 2024):

What was measured:
[1] = Chromatographic hydrophobicity index of compound at pH 2.0 by reversed-phase HPLC analysis; assay type: ADME
[2] = Chromatographic hydrophobicity index of compound at pH 7.4 by reversed-phase HPLC analysis; assay type: ADME
[3] = Chromatographic hydrophobicity index of compound at pH 10.5 by reversed-phase HPLC analysis; assay type: ADME
[4] = Metabolic stability in mouse liver microsomes assessed as half life at 0.5 uM measured upto 30 mins in presence of NADPH by LC-MS/MS analysis; assay type: ADME, Microsome
[5] = Metabolic stability in mouse liver microsomes assessed as intrinsic clearance at 0.5 uM measured upto 30 mins in presence of NADPH by LC-MS/MS analysis; assay type: ADME, Microsome; conditions: read-out: CLH
in vitro = conditions: mouse
[6] = Permeability of the compound assessed as membrane retention; assay type: ADME

Row | CHI [1] | CHI [2] | CHI [3] | half-life at 0.5 µM [4] [min] | microsomal CLint at 0.5 µM [5] [µL/min/mg] | Papp at 2 h, 20 µM (in vitro) [×10⁻⁶ cm/s] | R% [6] | Compound
1 | 53 | 98 | 102.1 | – | – | – | – | CN(Cc1ccccc1)Cc1ccc(COc2ccc3c(CO)cc(=O)oc3c2)cc1
2 | 53.7 | 92.9 | 97.8 | – | – | – | – | CN(CCc1cccs1)Cc1ccc(COc2ccc3c(CO)cc(=O)oc3c2)cc1
3 | 35.9 | 62.6 | 61.4 | – | – | – | – | CN(Cc1ccc(COc2ccc3c(CO)cc(=O)oc3c2)cc1)Cc1cncnc1
4 | 32.9 | 70.6 | 70.9 | – | – | – | – | CN(Cc1ccc(COc2ccc3c(CO)cc(=O)oc3c2)cc1)Cc1cccnc1
5 | 47.2 | 83.5 | 85.1 | – | – | – | – | CN(Cc1ccc(COc2ccc3c(CO)cc(=O)oc3c2)cc1)Cc1ccco1
6 | 54.3 | 85.5 | 95.2 | 13.5 | 103 | 5.9 | – | CN(CCc1ccsc1)Cc1ccc(COc2ccc3c(CO)cc(=O)oc3c2)cc1
7 | 32.3 | – | 72 | – | – | – | – | CN(Cc1ccncc1)Cc1ccc(COc2ccc3c(CO)cc(=O)oc3c2)cc1
8 | 29.9 | 65.3 | 69.3 | 5.97 | 233 | – | – | CN(CCc1cccnc1)Cc1ccc(COc2ccc3c(CO)cc(=O)oc3c2)cc1
9 | 42.7 | 76.7 | 76.1 | – | – | – | – | CN(Cc1ccc(COc2ccc3c(CO)cc(=O)oc3c2)cc1)Cc1nccs1
10 | 50.7 | 90.3 | 95 | 22.7 | 61.2 | 8 | – | CN(Cc1ccc(COc2ccc3c(CO)cc(=O)oc3c2)cc1)Cc1ccsc1
11 | 42.2 | 68.3 | 69.9 | – | – | – | – | CN(Cc1ccc(COc2ccc3c(CO)cc(=O)oc3c2)cc1)Cc1cscn1
12 | 50.4 | 96.5 | 98 | – | – | – | – | CN(Cc1ccc(COc2ccc3c(CO)cc(=O)oc3c2)cc1)Cc1cccs1
13 | 34.6 | 51.6 | 50.7 | – | – | – | ~ 50% | CN(Cc1ccc(COc2ccc3c(CO)cc(=O)oc3c2)cc1)Cc1ncc[nH]1
